Reference: patent US12227494B2, “Polymorphisms of HM30181 mesylate” (ATHENEX R&D, LLC, priority 2020, dated 2025)

Assay: Estimated solubility of HM30181 mesylate Type A starting material in solvents (stepwise solvent addition)
Format: physicochemical
Conditions: for solubility: thermodynamic from solid

COc1cc2c(cc1OC)CN(CCc1ccc(-n3nnc(-c4cc(OC)c(OC)cc4NC(=O)c4cc(=O)c5ccccc5o4)n3)cc1)CC2.CS(=O)(=O)O [HM30181 mesylate Type A, HM30181 mesylate] gave a solubility (organic solvent or mixture, solvent 1,4-Dioxane) of under 1000 µg/mL, a solubility (organic solvent or mixture, solvent 2-MeTHF) of under 1000 µg/mL and a solubility (organic solvent or mixture, solvent ACN) of under 1000 µg/mL. For the same compound, the solubility (organic solvent or mixture, solvent Acetone) was under 1000 µg/mL, the solubility (organic solvent or mixture, solvent CHCl3) was 5000 to 6700 µg/mL and the solubility (organic solvent or mixture, solvent Cumene) was under 1000 µg/mL. The solubility (organic solvent or mixture, solvent Cyclohexane) was under 1000 µg/mL, the solubility (organic solvent or mixture, solvent DCM) was under 1000 µg/mL and the solubility (organic solvent or mixture, solvent DMA) was 3200 to 4800 µg/mL. The solubility (organic solvent or mixture, solvent DMSO) was 22000 to 44000 µg/mL, the solubility (organic solvent or mixture, solvent EtOAc) was under 900 µg/mL and the solubility (organic solvent or mixture, solvent EtOH) was under 900 µg/mL. For the same compound, the solubility (organic solvent or mixture, solvent IPA) was under 1000 µg/mL, the solubility (organic solvent or mixture, solvent IPOAc) was under 1000 µg/mL and the solubility (organic solvent or mixture, solvent MEK) was under 1000 µg/mL. The solubility (organic solvent or mixture, solvent MIBK) was under 1000 µg/mL, the solubility (organic solvent or mixture, solvent MTBE) was under 1000 µg/mL and the solubility (organic solvent or mixture, solvent MeOH) was 1700 to 2000 µg/mL. For the same compound, the solubility (organic solvent or mixture, solvent NMP) was 4800 to 6300 µg/mL, the solubility (organic solvent or mixture, solvent T-BuOH) was under 1000 µg/mL and the solubility (organic solvent or mixture, solvent THF) was under 1000 µg/mL. It also gave a solubility (organic solvent or mixture, solvent Toluene) of under 1000 µg/mL, a solubility (organic solvent or mixture, solvent n-Heptane) of under 1000 µg/mL and a solubility (organic solvent or mixture, solvent n-Propanol) of under 1000 µg/mL. The solubility (organic solvent or mixture, solvent n-Propyl acetate) was under 1000 µg/mL, the “Dissolved after heating to 50° C. for 2 hours?” value (shortened to “Dissolved after heating”) (solvent 1,4-Dioxane) was “No” and the “Dissolved after heating” value (solvent 2-MeTHF) was “No”. The “Dissolved after heating” value (solvent ACN) was “Yes”, the “Dissolved after heating” value (solvent Acetone) was “No” and the “Dissolved after heating” value (solvent Cumene) was “No”. For the same compound, the “Dissolved after heating” value (solvent Cyclohexane) was “No”, the “Dissolved after heating” value (solvent DCM) was “Yes” and the “Dissolved after heating” value (solvent EtOAc) was “No”. For the same compound, the “Dissolved after heating” value (solvent EtOH) was “Almost”, the “Dissolved after heating” value (solvent H2O) was “No” and the “Dissolved after heating” value (solvent IPA) was “No”. The “Dissolved after heating” value (solvent IPOAc) was “No”, the “Dissolved after heating” value (solvent MEK) was “No” and the “Dissolved after heating” value (solvent MIBK) was “No”. The “Dissolved after heating” value (solvent MTBE) was “No”, the “Dissolved after heating” value (solvent T-BuOH) was “No” and the “Dissolved after heating” value (solvent THF) was “No”. For the same compound, the “Dissolved after heating” value (solvent Toluene) was “No”, the “Dissolved after heating” value (solvent n-Heptane) was “No” and the “Dissolved after heating” value (solvent n-Propanol) was “No”. The “Dissolved after heating” value (solvent n-Propyl acetate) was “No” and the solubility (water, solvent H2O) was under 1000 µg/mL.
